Assay results: patent US20180120298A1, “HEPATOCYTE CULTURE DEVICE CAPABLE OF ENHANCING ACCUMULATION AND EXCRETION OF HEPATIC METABOLITE IN AND INTO BILE CANALICULUS-LIKE STRUCTURE, AND METHOD FOR EVALUATING CANDIDATE COMPOUND SENSITIVE TO EXCRETION INTO BILE OR BLOOD AND HEPATIC METABOLITE OF SAID CANDIDATE COMPOUND USING SAID HEPATOCYTE …” (National Agriculture and Food Reserach Organization, priority 2015, published 2018)
Where two headings read alike, the source gives them in different places.

Assays:
HepG2 cells [1] = test system: HepG2 cells
Procedure: (§1) HepG2 cells (purchased from RIKEN BioResource Center, RCB1648, Lot.004) suspended in 0.5 mL DMEM culture medium containing 10% FBS, 20 mM HEPES, 100 units/mL penicillin, and 100 μg/mL streptomycin were seeded at 5×10^4 cells/cm^2 and cultured for 2 days in a hydrogel membrane chamber (ad-MED Vitrigel (registered trademark) manufactured by KANTO KAGAKU) to which a detachable silicone-coated PET film is attached. Thereafter, the film on a bottom surface of the hydrogel membrane chamber was detached, the chamber was mounted in a well of a 12-well plate, and culture was carried out for 1 day in a state where the bottom surface is in contact with air (refer to FIG. 2). The 0.5 mL culture medium was exchanged daily after seeding.
(§2) [1] After removing the culture medium of the hydrogel membrane chamber containing the activated HepG2 cells, 0.5 mL of the culture medium containing 250 vg/mL Fluorescein diacetate (FD) was added, and then culture was carried out at 37° C. for 1 hour in a CO2 incubator (refer to FIG. 4 and Observation A of FIG. 5).
(§3) [2] After removing the culture medium containing the FD remaining in the chamber, washing was performed twice with 0.5 mL of Hank's Balanced Salt Solution (Hank's balanced salt solution: HBSS), 0.5 mL of the culture medium was added to the chamber, and then culture was carried out at 37° C. for 1 hour in a CO2 incubator (refer to Observation B of FIG. 5).
(§4) [1] HepG2 cells were seeded to prepare 12 sets of activated hydrogel membrane chambers. For 6 sets, FD was added to the culture medium and cultured by the same procedure as in [1] to [2] of Example 1.
(§5) [2] Subsequently, after removing the culture medium remaining in the chamber, 0.5 mL of the culture medium was newly added to the chamber. Subsequently, each of three sets was cultured at 37° C. for 1 hour in a CO2 incubator under the following four conditions (refer to FIG. 6).
(§6) i) A set in which HepG2 cells were co-cultured with TFK-1 cells (FD added) ii) A set in which HepG2 cells were co-cultured with TFK-1 cells (FD not added) iii) A set in which HepG2 cells were homo-cultured in a dish containing only a culture medium (FD added) iv) A set in which HepG2 cells were homo-cultured in a dish containing only a culture medium (FD not added)
(§7) [3] The culture medium in the chamber and the dish of i) to iv) was recovered and the fluorescence intensities were measured.
[2] With respect to the 36 sets of hydrogel membrane chambers in which the cells were seeded and cultured in [1], the culture medium remaining in the chamber was removed, and then 0.5 mL of the culture medium was newly added to the chamber. Subsequently, each of three sets was cultured at 37° C. in a CO2 incubator with culture time of 3 minutes, 30 minutes, and 60 minutes (for each 12 sets) under the following four conditions i) to iv) the same as those of Example 2.
[3] The culture media in the dishes and in the chambers of i) to iv) were recovered 3 minutes, 30 minutes, and 60 minutes after the start of culture, and the fluorescence intensities were measured. Measurements were made three times respectively, and average values are shown in Table 3 (culture time 3 minutes), Table 4 (culture time 30 minutes), and Table 5 (culture time 60 minutes). In FIG. 7, the term “Co-culture” means the set in which HepG2 cells were co-cultured with TFK-1 cells, and the term “Homo-culture” means the set in which HepG2 cells were homo-cultured in the dish containing the culture medium.
[2] With respect to the 48 sets of hydrogel membrane chambers in which the cells were seeded and cultured in [1], the culture medium remaining in the chamber was removed, and then 0.5 mL of the culture medium was newly added to the chamber. Subsequently, each of three sets was cultured at 37° C. in a CO2 incubator with culture time of 3 minutes, 30 minutes, 60 minutes, and 180 minutes (for each 12 sets) under the following four conditions i) to iv) the same as those of Example 2.

[2] = test system: HepG2 cells co-cultured with Normal Human Dermal Fibroblasts (NHDFs); experiment: Fluorescein excretion into chamber and dish, activated HepG2 cells co-cultured with NHDFs; type: in vitro ADME; details: Example 6; culture time 60 minutes
Procedure: [1] First, HepG2 cells were seeded to prepare 18 sets of activated hydrogel membrane chambers.

[3] = test system: HepG2 cells co-cultured with TFK-1 cells; experiment: Fluorescein excretion into chamber and dish, activated HepG2 cells in hydrogel membrane chamber co-cultured with TFK-1 cells; type: in vitro ADME, human; details: Example 4
[4] = test system: HepG2 cells co-cultured with TFK-1 cells; experiment: Fluorescence microscope observation of Fluorescein in cytoplasm and bile canaliculus-like structure, co-culture with TFK-1 cells; type: in vitro ADME, human
Procedure: [3] […] After removing the culture medium in the dish, 0.5 mL of the culture medium for HepG2 cells was added thereto.
(§8) [1] First, HepG2 cells were seeded to prepare 2 sets of activated hydrogel membrane chambers.

HepG2 cells [5] = experiment: Fluorescence microscope observation of Fluorescein in cytoplasm and bile canaliculus-like structure, homo-culture; type: in vitro ADME
Procedure: as §8

[6] = test system: HepG2 cells co-cultured with TFK-1 cells; experiment: Fluorescein excretion into chamber and dish, activated HepG2 cells in hydrogel membrane chamber co-cultured with TFK-1 cells; type: in vitro ADME, human
Procedure: as §1, §2, §3
[3] Subsequently, after removing the culture medium remaining in the chamber, 0.5 mL of the culture medium was newly added to the chamber. Furthermore, TFK-1 cells (purchased from RIKEN BioResource Center, RCB2537, Lot.002) suspended in 2.0 mL of RPMI 1640 culture medium containing 10% FBS, 100 units/mL penicillin, and 100 μg/mL streptomycin were seeded at 7×10^4 cells/cm^2 in a dish having a diameter of 35 mm and cultured for 3 days, and therefore, monolayered cells were prepared in advance. After removing the culture medium in the dish, 0.5 mL of the culture medium for HepG2 cells was added thereto. The chamber was mounted on the monolayer of TFK-1 cells in the dish having a diameter of 35 mm, and then co-culture was carried out at 37° C. for 1 hour in a CO2 incubator (refer to Observation C of FIG. 5).
[4] The fluorescence intensities of Fluorescein in the culture medium in the chamber and in the dish were measured. In Table 1, FD (−) is a value measured as a background value using a chamber having HepG2 cells cultured without adding FD.
as §4, §5, §6, §7
[2] […]

SMILES: CC(=O)Oc1ccc2c(c1)Oc1cc(OC(C)=O)ccc1C21OC(=O)c2ccccc21 [FD, Fluorescein diacetate]
- Average value of set, in chamber (HepG2 cells [1]; human, 3 min, 250 vg/mL): 507
- FD(+)-FD(−) in chamber as percentage of total excreted into chamber and dish (HepG2 cells [1]; human, 30 min, 250 vg/mL): (50%)
- FD(+)-FD(−) in dish as percentage of total excreted into chamber and dish (HepG2 cells [1]; human, 30 min, 250 vg/mL): (50%)
- Average value of set, in chamber (HepG2 cells [1]; human, 1 h, 250 vg/mL): 1145
- Average value of set, in dish (HepG2 cells [1]; human, 1 h, 250 vg/mL): 645
- FD(+)-FD(−) in chamber as percentage of total excreted into chamber and dish (HepG2 cells [1]; human, 1 h, 250 vg/mL): (90%)
- FD(+)-FD(−) in dish as percentage of total excreted into chamber and dish (HepG2 cells [1]; human, 1 h, 250 vg/mL): (10%)
- FD(+)-FD(−), in chamber (HepG2 cells [1]; human, 1 h, 250 vg/mL): 549
- FD(+)-FD(−), in dish (HepG2 cells [1]; human, 1 h, 250 vg/mL): 60
- Average value of set, in chamber (HepG2 cells [1]; human, 180 min, 250 vg/mL): 579
- Average value of set, in dish (HepG2 cells [1]; human, 180 min, 250 vg/mL): 515
- FD(+)-FD(−) in chamber as percentage of total excreted into chamber and dish (HepG2 cells [1]; human, 180 min, 250 vg/mL): (71%)
- FD(+)-FD(−) in dish as percentage of total excreted into chamber and dish (HepG2 cells [1]; human, 180 min, 250 vg/mL): (29%)
- FD(+)-FD(−), in chamber (HepG2 cells [1]; human, 180 min, 250 vg/mL): 88
- FD(+)-FD(−), in dish (HepG2 cells [1]; human, 180 min, 250 vg/mL): 36

SMILES: O=C1OC2(c3ccc(O)cc3Oc3cc(O)ccc32)c2ccccc21 [Fluorescein]
- amount of Fluorescein excreted into the dish smaller in co-culture with NHDFs than in co-culture with TFK-1 cells [2]: 54%
- total of the fluorescence intensities of Fluorescein excreted into chamber and dish, co-culture with NHDFs compared with homo-culture [2]: almost the same
- rate of the fluorescence intensities of Fluorescein excreted into the dish (lower side) over time (HepG2 cells [1]): decreased over time
- culture time beyond which total excreted Fluorescein fluorescence becomes almost a plateau state (HepG2 cells [1]; human, 250 vg/mL): exceeds 30 minutes
- total of the fluorescence intensities of Fluorescein excreted into the chamber and into the dish (HepG2 cells [1]; human, 1 h, 250 vg/mL): 609
- total of the fluorescence intensities of excreted Fluorescein, co-culture with TFK-1 cells compared with homo-culture ([3]; at any time of the culture time (3 to 180 minutes)): larger
- culture time beyond which total excreted Fluorescein fluorescence becomes almost a plateau state ([3]; co-culture with TFK-1 cells): exceeds 60 minutes
- rate of the fluorescence intensities of Fluorescein excreted into the dish (lower side) over time ([3]; co-culture with TFK-1 cells): increased
- amount of Fluorescein excreted into the dish (lower side) larger in co-culture with TFK-1 cells than in homo-culture (rate of excretion to the lower side) ([3]; culture time 180 minutes): 36%
- Fluorescein accumulated in the bile canaliculus-like structure after co-culturing with TFK-1 cells ([4]; Example 1, Observations B and C of FIG. 5, co-culture 1 hour): decreased
- time within which reduction in the amount of Fluorescein accumulated in the bile canaliculus-like structure was confirmed ([4]; Example 5, co-culture with TFK-1 cells): ≤ 1 h
- reduction in the green fluorescence of Fluorescein ([4]; Example 5, co-culture, after 1 hour of excretion): significantly noticeable
- green fluorescence of Fluorescein ([4]; Example 5, co-culture, after 3 hours of excretion): not possible to confirm
- green fluorescence of Fluorescein ([4]; Example 5, co-culture, after 23 hours of excretion): not possible to confirm
- time needed to reduce the amount of Fluorescein accumulated in the bile canaliculus-like structure (HepG2 cells [5]; Example 5): ≥ 1 days
- reduction in the green fluorescence of Fluorescein (HepG2 cells [5]; Example 5, after 1 hour of excretion): not noticeable
- reduction in the green fluorescence of Fluorescein (HepG2 cells [5]; Example 5, after 3 hours of excretion): significantly noticeable
- green fluorescence of Fluorescein (HepG2 cells [5]; Example 5, after 23 hours of excretion): fluorescence in the bile canaliculus-like structure remained
- amount of Fluorescein excreted into the dish larger in co-culture with TFK-1 cells than in homo-culture (rate of excretion to the lower side) ([6]; Example 2, 1 hour): 4%
- increase of the total amount of excreted Fluorescein, co-culture with TFK-1 cells vs homo-culture ([6]; Example 2, 1 hour): about 26%
- total of the fluorescence intensities of Fluorescein excreted into the chamber and into the dish ([6]; Example 2, co-cultured with TFK-1 cells, 1 hour): 770
- rate of the fluorescence intensities of Fluorescein excreted into the dish (lower side) over time ([6]; Example 3, co-culture with TFK-1 cells): increased
- total of the fluorescence intensities of excreted Fluorescein, co-culture with TFK-1 cells compared with homo-culture ([6]; Example 3, culture time 3, 30 and 60 minutes): larger
